Test results published in PubChem BioAssay AID330 (DTP/NCI, 2004).
Values joined by “and” are separate entries in the source; they are usually repeats but may differ in a detail not shown here. Identical values can stand only once. Inconclusive results and toxic doses are left out.

System: P388 leukemia ip, CD2F1 mice, survival T/C
Test: NCI In Vivo Anticancer Drug Screen. Data for tumor model P388 Leukemia (intraperitoneal) in CD2F1 (CDF1) mice
Conditions: endpoint: median survival time, higher = longer survival
In short: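 Mice carrying the transplanted tumor received test compound or vehicle. Survival was recorded in each group, and the value is the treated-group measurement divided by that of the vehicle-treated control group.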

[1] = dose: 15.0 mg/kg/injection, schedule: Q01DX005 (ip), vehicle: Klucel (hydroxypropylcellulose) (HPC)
[2] = dose: 30.0 mg/kg/injection, schedule: Q01DX005 (ip), vehicle: Klucel (hydroxypropylcellulose) (HPC)
[3] = dose: 100.0 mg/kg/injection, schedule: Q04DX003 (ip), vehicle: saline with Tween-80
[4] = dose: 200.0 mg/kg/injection, schedule: Q04DX003 (ip), vehicle: saline with Tween-80
[5] = dose: 50.0 mg/kg/injection, schedule: Q01DX009 (ip), vehicle: saline
[6] = dose: 50.0 mg/kg/injection, schedule: Q01DX009 (ip), vehicle: Klucel (hydroxypropylcellulose) (HPC)
[7] = dose: 100.0 mg/kg/injection, schedule: Q01DX009 (ip), vehicle: Klucel (hydroxypropylcellulose) (HPC)
[8] = dose: 200.0 mg/kg/injection, schedule: Q01DX009 (ip), vehicle: Klucel (hydroxypropylcellulose) (HPC)
[9] = dose: 100.0 mg/kg/injection, schedule: Q01DX009 (ip), vehicle: saline with Tween-80
[10] = dose: 200.0 mg/kg/injection, schedule: Q01DX009 (ip), vehicle: saline with Tween-80
[11] = dose: 60.0 mg/kg/injection, schedule: Q01DX005 (ip), vehicle: saline with Tween-80
[12] = dose: 120.0 mg/kg/injection, schedule: Q01DX005 (ip), vehicle: saline with Tween-80
[13] = dose: 240.0 mg/kg/injection, schedule: Q01DX005 (ip), vehicle: saline with Tween-80
[14] = dose: 25.0 mg/kg/injection, schedule: Q01DX005 (ip), vehicle: saline with Tween-80
[15] = dose: 50.0 mg/kg/injection, schedule: Q01DX005 (ip), vehicle: saline with Tween-80
[16] = dose: 100.0 mg/kg/injection, schedule: Q01DX005 (ip), vehicle: saline with Tween-80
[17] = dose: 200.0 mg/kg/injection, schedule: Q01DX005 (ip), vehicle: saline with Tween-80
[18] = dose: 100.0 mg/kg/injection, schedule: Q04DX002 (ip), vehicle: saline with Tween-80
[19] = dose: 50.0 mg/kg/injection, schedule: Q01DX005 (ip), vehicle: saline
[20] = dose: 100.0 mg/kg/injection, schedule: Q04DX003 (ip), vehicle: saline
[21] = dose: 200.0 mg/kg/injection, schedule: Q04DX003 (ip), vehicle: saline

O=C(O)C(=O)O.[Ti].[c-]1[c-][c-][cH-][c-]1.[c-]1[c-][c-][cH-][c-]1
T/C (dose: 3.75 mg/kg/injection, schedule: Q01DX005 (ip), vehicle: Klucel (hydroxypropylcellulose) (HPC)): 94 % of control | T/C (dose: 7.5 mg/kg/injection, schedule: Q01DX005 (ip), vehicle: Klucel (hydroxypropylcellulose) (HPC)): 99 % of control | T/C [1]: 99 % of control | T/C [2]: 100 % of control

CC(C)OC(=O)Nc1nc2ccc(C(=O)OC(C)C)cc2[nH]1
T/C (dose: 50.0 mg/kg/injection, schedule: Q04DX003 (ip), vehicle: saline with Tween-80): 102 % of control | T/C [3]: 104 % of control and 116 % of control | T/C [4]: 112 % of control and 113 % of control

NC(C(=O)O)C(C(F)(F)F)C(F)(F)F (stereo unspecified)
T/C [5]: 101 % of control | T/C (dose: 100.0 mg/kg/injection, schedule: Q01DX009 (ip), vehicle: saline): 102 % of control | T/C (dose: 200.0 mg/kg/injection, schedule: Q01DX009 (ip), vehicle: saline): 114 % of control

CC(=O)c1ccc(Cl)c(N=Cc2cc(Cl)cc(Cl)c2O)c1
T/C [6]: 91 % of control | T/C [7]: 93 % of control | T/C [8]: 98 % of control

CC(C)CNC(=O)CNC(=O)C=[N+]=[N-]
T/C (dose: 50.0 mg/kg/injection, schedule: Q01DX009 (ip), vehicle: saline with Tween-80): 104 % of control | T/C [9]: 104 % of control | T/C [10]: 104 % of control

CCCCCCOC(=O)C(O)c1ccccc1 (stereo unspecified)
T/C [9]: 100 % of control | T/C [10]: 109 % of control

CCn1c2ccccc2c2ccc(N=Cc3ccc([N+](=O)[O-])cc3)cc21
T/C [6]: 99 % of control | T/C [7]: 100 % of control | T/C [8]: 99 % of control

CCC(CC)C(=O)NC(=O)NC(N)=O
T/C [11]: 97 % of control | T/C [12]: 97 % of control | T/C [13]: 112 % of control

Cc1ccc(-n2nc(C(O)C(O)C(O)CO)c3nc4cc(C)c(C)cc4nc32)cc1 (stereo unspecified)
T/C [14]: 98 % of control | T/C [15]: 100 % of control and 90 % of control | T/C [16]: 102 % of control | T/C [17]: 100 % of control

N=C(N)c1ccc2[nH]c(/C=C/c3cc4cc(C(=N)N)ccc4o3)cc2c1
T/C (dose: 25.0 mg/kg/injection, schedule: Q04DX003 (ip), vehicle: suspension in saline): 163 % of control | T/C (dose: 50.0 mg/kg/injection, schedule: Q04DX003 (ip), vehicle: suspension in saline): 160 % of control | T/C (dose: 100.0 mg/kg/injection, schedule: Q04DX003 (ip), vehicle: suspension in saline): 163 % of control

Cc1c(C)c2c(N)c3ccccc3nc2c2ccccc12
T/C (dose: 12.5 mg/kg/injection, schedule: Q01DX001 (ip), vehicle: saline with Tween-80): 101 % of control | T/C (dose: 25.0 mg/kg/injection, schedule: Q01DX001 (ip), vehicle: saline with Tween-80): 100 % of control | T/C (dose: 50.0 mg/kg/injection, schedule: Q01DX001 (ip), vehicle: saline with Tween-80): 115 % of control | T/C (dose: 100.0 mg/kg/injection, schedule: Q01DX001 (ip), vehicle: saline with Tween-80): 111 % of control

CCN(CC)CCNc1cc(O)c2c(c1O)C(=O)c1ccccc1C2=O
T/C (dose: 25.0 mg/kg/injection, schedule: Q04DX002 (ip), vehicle: saline with Tween-80): 105 % of control | T/C (dose: 50.0 mg/kg/injection, schedule: Q04DX002 (ip), vehicle: saline with Tween-80): 98 % of control | T/C [18]: 103 % of control and 107 % of control

S=C(N/N=C/c1ccc(Cl)cc1)Nc1ccccc1
T/C [7]: 101 % of control | T/C [8]: 100 % of control | T/C (dose: 400.0 mg/kg/injection, schedule: Q01DX009 (ip), vehicle: Klucel (hydroxypropylcellulose) (HPC)): 93 % of control

C=C(c1ccc2nc(NC(=O)OC)[nH]c2c1)c1cccs1
T/C [14]: 108 % of control | T/C [15]: 99 % of control | T/C [16]: 98 % of control | T/C [17]: 100 % of control

O=C1c2cc3c(cc2C(=O)c2cc(-c4ccccc4)c(-c4ccccc4)cc21)OCO3
T/C [11]: 92 % of control | T/C [12]: 100 % of control | T/C [13]: 98 % of control and 102 % of control

O=C1C(O)C(c2ccccc2)c2ccccc2N1c1ccccc1 (stereo unspecified)
T/C (dose: 100.0 mg/kg/injection, schedule: Q01DX001 (ip), vehicle: Klucel (hydroxypropylcellulose) (HPC)): 95 % of control | T/C (dose: 200.0 mg/kg/injection, schedule: Q01DX001 (ip), vehicle: Klucel (hydroxypropylcellulose) (HPC)): 96 % of control | T/C (dose: 400.0 mg/kg/injection, schedule: Q01DX001 (ip), vehicle: Klucel (hydroxypropylcellulose) (HPC)): 89 % of control

Cc1ccc(N=c2scc(-c3ccccc3)n2-c2ccccc2)cc1
T/C [18]: 102 % of control | T/C (dose: 200.0 mg/kg/injection, schedule: Q04DX002 (ip), vehicle: saline with Tween-80): 93 % of control | T/C (dose: 400.0 mg/kg/injection, schedule: Q04DX002 (ip), vehicle: saline with Tween-80): 95 % of control

O=C(N=Nc1c(Cl)c(O)c2ccccc2c1O)C(F)(F)F
T/C (dose: 1.56 mg/kg/injection, schedule: Q01DX009 (ip), vehicle: saline with Tween-80): 101 % of control | T/C (dose: 3.13 mg/kg/injection, schedule: Q01DX009 (ip), vehicle: saline with Tween-80): 110 % of control | T/C (dose: 6.25 mg/kg/injection, schedule: Q01DX009 (ip), vehicle: saline with Tween-80): 115 % of control

CN(C)CC(CN(C)C)C(=O)c1ccc(Cl)cc1
T/C (dose: 6.25 mg/kg/injection, schedule: Q01DX005 (ip), vehicle: saline): 107 % of control and 95 % of control and 96 % of control | T/C (dose: 12.5 mg/kg/injection, schedule: Q01DX005 (ip), vehicle: saline): 107 % of control and 115 % of control and 116 % of control | T/C (dose: 25.0 mg/kg/injection, schedule: Q01DX005 (ip), vehicle: saline): 107 % of control and 118 % of control and 124 % of control | T/C [19]: 104 % of control and 113 % of control

C/C(=N/NC(N)=S)c1cn[nH]c1C
T/C [1]: 102 % of control | T/C [2]: 102 % of control | T/C (dose: 60.0 mg/kg/injection, schedule: Q01DX005 (ip), vehicle: Klucel (hydroxypropylcellulose) (HPC)): 114 % of control

COC(=O)c1cc(Nc2ccccc2)c2ncccc2c1O
T/C [11]: 92 % of control | T/C [12]: 98 % of control | T/C [13]: 98 % of control

CCN=P1(N(C(C)C)C(C)C)N(CC)N=NN1C(C)(C)C (stereo unspecified)
T/C (dose: 1.56 mg/kg/injection, schedule: Q01DX005 (ip), vehicle: Klucel (hydroxypropylcellulose) (HPC)): 102 % of control | T/C (dose: 3.12 mg/kg/injection, schedule: Q01DX005 (ip), vehicle: Klucel (hydroxypropylcellulose) (HPC)): 104 % of control | T/C (dose: 6.25 mg/kg/injection, schedule: Q01DX005 (ip), vehicle: Klucel (hydroxypropylcellulose) (HPC)): 100 % of control | T/C (dose: 12.5 mg/kg/injection, schedule: Q01DX005 (ip), vehicle: Klucel (hydroxypropylcellulose) (HPC)): 104 % of control | T/C (dose: 50.0 mg/kg/injection, schedule: Q01DX005 (ip), vehicle: Klucel (hydroxypropylcellulose) (HPC)): 111 % of control

Cc1c(NC(=O)Nc2cc([N+](=O)[O-])ccc2Cl)c(=O)n(-c2ccccc2)n1C
T/C [11]: 94 % of control | T/C [12]: 86 % of control

c1c[nH]cn1
T/C [5]: 97 % of control

CC(=O)OCC#CCN1CCC(C)CC1
T/C [19]: 97 % of control | T/C (dose: 100.0 mg/kg/injection, schedule: Q01DX005 (ip), vehicle: saline): 95 % of control | T/C (dose: 200.0 mg/kg/injection, schedule: Q01DX005 (ip), vehicle: saline): 102 % of control

O=C(CCl)NCc1ccccc1
T/C [20]: 98 % of control | T/C [21]: 100 % of control

CCN(CC)C(=O)c1ccc[n+](CCC(N)=O)c1
T/C [20]: 90 % of control | T/C [21]: 100 % of control | T/C (dose: 400.0 mg/kg/injection, schedule: Q04DX003 (ip), vehicle: saline): 100 % of control

C[C@]12CC[C@H]3C(=CCc4cc(O)ccc43)[C@@H]1C/C(=N\O)C2=O
T/C [9]: 115 % of control | T/C [3]: 100 % of control | T/C [10]: 120 % of control | T/C [4]: 104 % of control | T/C (dose: 400.0 mg/kg/injection, schedule: Q04DX003 (ip), vehicle: saline with Tween-80): 95 % of control

Brc1cc(Br)c(I)c(Br)c1
T/C (dose: 100.0 mg/kg/injection, schedule: Q04DX003 (ip), vehicle: other): 95 % of control | T/C (dose: 200.0 mg/kg/injection, schedule: Q04DX003 (ip), vehicle: other): 100 % of control | T/C (dose: 400.0 mg/kg/injection, schedule: Q04DX003 (ip), vehicle: other): 100 % of control
